Test results reported in paper PMC8156151 (The European Respiratory Journal, 2021).
Read-outs that look alike come from different tables or passages of the source.

Legend:
Type in all cases: in vivo, human
MMP-8 = assay: Plasma biomarker MMP-8; details: for MMP-8 raw data, Mean (SD) / MMP-8 least square means % baseline±SEM: IPF patients
Experimental: (§1) All patients, investigators, sites and study sponsor personnel were blinded to the study group assignments throughout the study. Patients underwent study-specific assessments on days 2, 3, 7, 14 and 15, and a post-study assessment was carried out 26–30 days after the last day of the study period. Assessments included vital signs (supine blood pressure, pulse, oxygen saturation, oral temperature and respiratory rate), spirometry, 12-lead ECG, physical examination, laboratory safety screen (haematology, biochemistry, urinalysis and urinary drugs of abuse screen) and blood sampling for PK measurements. All adverse events and concomitant medications were recorded from the time of the screening visit until the post-study follow-up visit. BAL was performed at day −1 (24 h before the first dose) and at day 14 (2 h after the last dose). The BAL procedure was performed as per international guidelines. Briefly, 240 mL of 0.9% saline at room temperature was instilled in 40 mL aliquots into the right middle lobe and aspirated by suction after each aliquot.
(§2) BAL cells were separated from fluid by centrifugation, and cells were collected, stained with antibodies (supplementary material) and then fixed before analysis using a LSR Fortessa flow cytometer (Becton Dickinson, Franklin Lakes, NJ, USA). Data were analysed using FlowJo software (Tree Star, Ashland, OR, USA). Macrophages were identified as having high side scatter properties and human leukocyte antigen-DR positivity. Gal-3 expression (mean fluorescence intensity) was determined from the macrophage gate (supplementary figures S1 and S2). […] Samples were analysed by magnetic Luminex assay (R&D Systems, Minneapolis, MN, USA) or ELISA.
(§3) For part 2 of the study, placebos were combined from the three dose-specific cohorts into a pooled control group (n=9). For alveolar macrophage Gal-3 expression and the plasma biomarkers, ANCOVA was performed for percentage of baseline ((day 14/day 1)×100). The ANCOVA model included effects for treatment group and baseline (day 1) value. […] An additional analysis including dose as a continuous covariate was also performed. The Pearson correlation coefficient (r) and associated p-value were calculated for percentage of baseline and day 14 values between plasma biomarkers and alveolar macrophage Gal-3 expression. […] The analysis is exploratory and there was no pre-planned adjustment for multiple testing; the study was not powered for this. Alveolar macrophage Gal-3 expression was considered the primary exploratory analysis with the pre-selected biomarkers secondary. A Bonferroni correction for multiple testing of the secondary end-points comparing the 10 mg group with placebo gives a critical value of 0.0063. Data are presented as the difference in least square means with 95% confidence interval and p-value unless otherwise stated. All analyses were performed using SAS version 9.4 (SAS Institute, Cary, NC, USA). […]

PDGF-BB = assay: Plasma biomarker PDGF-BB (Luminex/ELISA); details: for PDGF-BB raw data, Mean (SD) / PDGF-BB least square means % baseline±SEM: IPF patients
Experimental: as §1, §2, §3

Gal-3 = details: for Galectin-3 raw data, Mean (SD) / Gal-3 least square means % baseline±SEM: IPF patients; for Galectin-3 raw data, Mean (SD): Day 14; for Gal-3 least square means % baseline±SEM: day 14
Experimental: as §1, with “BAL was performed at day −1 (24 h before the first dose) and at day 14 (2 h after the last dose).” left out
as §2
as §3, with “Data are presented as the difference in least square means with 95% confidence interval and p-value unless otherwise stated.” left out
Plasma pharmacodynamic biomarkers
The following pre-specified biomarkers were evaluated in samples of plasma based on the basis

PAI-1 = assay: Plasma biomarker PAI-1; details: for PAI-1 raw data, Mean (SD) / PAI-1 least square means % baseline±SEM: IPF patients
Experimental: as §1, §2, §3

[1] = Plasma pharmacokinetics, part 1 (healthy subjects)
Experimental: Subjects were discharged 24 h post-dose (day 2) provided there were no safety concerns, and returned for three outpatient visits on days 3, 8 and 14 post-dose, with a post-study follow-up between days 26 and 30. Safety and PK assessments were made at predetermined time-points.
Full plasma PK profiles were conducted on days 1 (first day of dosing) and 14 (last day of dosing). […] Standard noncompartmental methods were applied to derive PK parameters using Phoenix WinNonlin version 6.3 (Certara, Sheffield, UK). […] Drug compartment measurements in BAL alveolar macrophages and fluid were determined as described previously.

MIF = assay: Plasma biomarker MIF; details: for MIF raw data, Mean (SD) / MIF least square means % baseline±SEM: IPF patients
Experimental: as §1, §2, §3

[2] = human, inhaled or intranasal, single inhaled 1.5 mg, mean±SD
[3] = human, inhaled or intranasal, single inhaled 3 mg, mean±SD
[4] = human, inhaled or intranasal, single inhaled 10 mg, mean±SD
[5] = human, inhaled or intranasal, single inhaled 20 mg, mean±SD
[6] = human, inhaled or intranasal, single inhaled 50 mg, mean±SD

AUC(0-inf) [1, 2]: 17.9 ± 14 ng·h/mL
half-life [1, 2]: 1.13 ± 0.63 h
Cmax ([1]; human, inhaled or intranasal, single inhaled 1.5 mg, mean±SD, read-out: Cmax): 2.37 ± 1.48 ng/mL
AUC(0-inf) [1, 3]: 70.8 ± 22.7 ng·h/mL
half-life [1, 3]: 3 ± 0.82 h
Cmax ([1]; human, inhaled or intranasal, single inhaled 3 mg, mean±SD, read-out: Cmax): 8.21 ± 2.67 ng/mL
AUC(0-inf) [1, 4]: 184 ± 64.5 ng·h/mL
half-life [1, 4]: 1.19 ± 0.94 h
Cmax ([1]; human, inhaled or intranasal, single inhaled 10 mg, mean±SD, read-out: Cmax): 22.6 ± 8.69 ng/mL
AUC(0-inf) [1, 5]: 544 ± 114 ng·h/mL
half-life [1, 5]: 1.31 ± 1.8 h
Cmax ([1]; human, inhaled or intranasal, single inhaled 20 mg, mean±SD, read-out: Cmax): 81.1 ± 27 ng/mL
AUC(0-inf) [1, 6]: 1160 ± 532 ng·h/mL
half-life [1, 6]: 0.81 ± 0.8 h
Cmax ([1]; human, inhaled or intranasal, single inhaled 50 mg, mean±SD, read-out: Cmax): 126 ± 43.3 ng/mL
Cmax ([1]; single inhaled 0.15 mg, BLQ: below limit of quantification (0.5 ng·mL^−1)): BLQ
Structure (SMILES): OC[C@H]1O[C@@H](S[C@@H]2O[C@H](CO)[C@H](O)[C@H](n3cc(-c4cccc(F)c4)nn3)[C@H]2O)[C@H](O)[C@@H](n2cc(-c3cccc(F)c3)nn2)[C@H]1O [TD139]
MMP-8 difference in least square means % baseline (95% CI) (MMP-8; 10 mg vs placebo, ANCOVA): −125.4 (−271.3–20.5) % baseline
MMP-8 raw data, Mean (SD) (MMP-8; Day 14, 0.3 mg): 1911.5 (1577.82) pg/ml
MMP-8 raw data, Mean (SD) (MMP-8; Day 14, 3 mg): 2263.3 (2428.78) pg/ml
MMP-8 raw data, Mean (SD) (MMP-8; Day 14, 10 mg): 44436.7 (97465.67) pg/ml
MMP-8 least square means % baseline±SEM (MMP-8; day 14, 0.3 mg once daily): 138.0±52.8 % baseline
MMP-8 least square means % baseline±SEM (MMP-8; day 14, 3 mg once daily): 115.2±52.7 % baseline
MMP-8 least square means % baseline±SEM (MMP-8; day 14, 10 mg once daily): 51.5±56.1 % baseline
PDGF-BB difference in least square means % baseline (95% CI) (PDGF-BB; 10 mg vs placebo, ANCOVA): −239.5 (−384.8– −94.2) % baseline
PDGF-BB raw data, Mean (SD) (PDGF-BB; Day 14, 0.3 mg): 1519 (1034.92) pg/ml
PDGF-BB raw data, Mean (SD) (PDGF-BB; Day 14, 3 mg): 2201.9 (2935.52) pg/ml
PDGF-BB raw data, Mean (SD) (PDGF-BB; Day 14, 10 mg): 1131.4 (1190.78) pg/ml
PDGF-BB least square means % baseline±SEM (PDGF-BB; day 14, 0.3 mg once daily): 90.5±55.2 % baseline
PDGF-BB least square means % baseline±SEM (PDGF-BB; day 14, 3 mg once daily): 103.7±54.1 % baseline
PDGF-BB least square means % baseline±SEM (PDGF-BB; day 14, 10 mg once daily): 35.7±54.2 % baseline
circulating Gal-3 plasma concentrations (percentage of baseline), difference versus placebo (Gal-3; 10 mg dose group): −67.63%
Galectin-3 raw data, Mean (SD) (Gal-3; plasma, 0.3 mg): 13290.4 (4951.24) pg/ml
Galectin-3 raw data, Mean (SD) (Gal-3; plasma, 3 mg): 9298.5 (3499.54) pg/ml
Galectin-3 raw data, Mean (SD) (Gal-3; plasma, 10 mg): 4486.3 (697.25) pg/ml
Gal-3 least square means % baseline±SEM (Gal-3; plasma, 0.3 mg once daily): 113.9±21.2 % baseline
Gal-3 least square means % baseline±SEM (Gal-3; plasma, 3 mg once daily): 119.5±21.3 % baseline
Gal-3 least square means % baseline±SEM (Gal-3; plasma, 10 mg once daily): 53.4±23.5 % baseline
Gal-3 difference in least square means % baseline (95% CI) (Gal-3; plasma, 10 mg vs placebo, ANCOVA): −67.6 (−126.9– −8.4) % baseline
PAI-1 difference in least square means % baseline (95% CI) (PAI-1; 10 mg vs placebo, ANCOVA): −151.8 (−265.3– −38.2) % baseline
PAI-1 raw data, Mean (SD) (PAI-1; Day 14, 0.3 mg): 45736.7 (29863.26) pg/ml
PAI-1 raw data, Mean (SD) (PAI-1; Day 14, 3 mg): 45744.4 (44222.1) pg/ml
PAI-1 raw data, Mean (SD) (PAI-1; Day 14, 10 mg): 23122.2 (12659.84) pg/ml
PAI-1 least square means % baseline±SEM (PAI-1; day 14, 0.3 mg once daily): 84.6±48.8 % baseline
PAI-1 least square means % baseline±SEM (PAI-1; day 14, 3 mg once daily): 92.4±44.5 % baseline
PAI-1 least square means % baseline±SEM (PAI-1; day 14, 10 mg once daily): 45.8±43.7 % baseline
MIF difference in least square means % baseline (95% CI) (MIF; 10 mg vs placebo, ANCOVA): −120.2 (−339.2–98.9) % baseline
MIF raw data, Mean (SD) (MIF; Day 14, 0.3 mg): 65871.3 (42284.53) pg/ml
MIF raw data, Mean (SD) (MIF; Day 14, 3 mg): 38884 (35236.82) pg/ml
MIF raw data, Mean (SD) (MIF; Day 14, 10 mg): 39660.6 (57202.1) pg/ml
MIF least square means % baseline±SEM (MIF; day 14, 0.3 mg once daily): 123.6±83.6 % baseline
MIF least square means % baseline±SEM (MIF; day 14, 3 mg once daily): 95.9±83.9 % baseline
MIF least square means % baseline±SEM (MIF; day 14, 10 mg once daily): 73.9±83.7 % baseline
